Assay results reported in patent US11117900B2 (Vertex Pharmaceuticals Incorporated, priority 2012, dated 2021).

Test system: HCT116 colorectal cancer cells
Test: Cisplatin sensitization assay (96 h MTS cell viability);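 further: compound concentration needed to lower the IC50 of Cisplatin alone by a set fold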
Format: cell-based
Settings: Cisplatin sensitization value
Procedure, shortened: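 HCT116 cells were dosed simultaneously with compound and cisplatin as a full matrix of 2-fold serial dilutions from 10 μM top final concentration. Incubation was 96 h at 37° C., 5% CO2, followed by 1 h with MTS reagent for the viability read-out. Sensitization values were binned into +++, ++ and + categories.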

SMILES | Cisplatin Sensitization Assay
Nc1nn2cc(F)cnc2c1C(=O)Nc1cnccc1N1CCN(C2CCOCC2)CC1 [I-N-11, 2-amino-6-fluoro-N-(4-(4-(tetrahydro-2H-pyran-4-yl)piperazin-1-yl)pyridin-3-yl)pyrazolo[1,5-a]pyrimidine-3-carboxamide] | ++ (Compounds with a Cisplatin sensitization value >0.02 μM but <0.2 μM are marked with “++.”)
Nc1nn2cc(F)cnc2c1C(=O)Nc1cnccc1N1CCN([C@H]2CCOC2)CC1 [I-N-12, (S)-2-amino-6-fluoro-N-(4-(4-(tetrahydrofuran-3-yl)piperazin-1-yl)pyridin-3-yl)pyrazolo[1,5-a]pyrimidine-3-carboxamide] | +++ (Compounds with a Cisplatin sensitization value of <0.02 μM are marked with “+++.”)
Nc1nn2cc(F)cnc2c1C(=O)Nc1cncc(F)c1N1CCN(C2COC2)CC1 [I-N-13, 2-amino-6-fluoro-N-(5-fluoro-4-(4-(oxetan-3-yl)piperazin-1-yl)pyridin-3-yl)pyrazolo[1,5-a]pyrimidine-3-carboxamide] | +++ (Compounds with a Cisplatin sensitization value of <0.02 μM are marked with “+++.”)
CN1CCN(c2c(F)cncc2NC(=O)c2c(N)nn3cc(Cl)cnc23)CC1 [I-N-14, 2-amino-6-chloro-N-(5-fluoro-4-(4-methylpiperazin-1-yl)pyridin-3-yl)pyrazolo[1,5-a]pyrimidine-3-carboxamide] | +++ (Compounds with a Cisplatin sensitization value of <0.02 μM are marked with “+++.”)
CN1CCN(c2c(F)cncc2NC(=O)c2c(N)nn3cc(F)cnc23)CC1 [I-N-15, 2-amino-6-fluoro-N-(5-fluoro-4-(4-methylpiperazin-1-yl)pyridin-3-yl)pyrazolo[1,5-a]pyrimidine-3-carboxamide] | +++ (Compounds with a Cisplatin sensitization value of <0.02 μM are marked with “+++.”)
Cc1cncc(NC(=O)c2c(N)nn3cc(F)cnc23)c1N1CCN(C2COC2)CC1 [I-N-16, 2-amino-6-fluoro-N-(5-methyl-4-(4-(oxetan-3-yl)piperazin-1-yl)pyridin-3-yl)pyrazolo[1,5-a]pyrimidine-3-carboxamide] | +++ (Compounds with a Cisplatin sensitization value of <0.02 μM are marked with “+++.”)
CCN1CCN(c2ccncc2NC(=O)c2c(N)nn3cc(F)cnc23)CC1 [I-N-17, 2-amino-N-(4-(4-ethylpiperazin-1-yl)pyridin-3-yl)-6-fluoropyrazolo[1,5-a]pyrimidine-3-carboxamide] | +++ (Compounds with a Cisplatin sensitization value of <0.02 μM are marked with “+++.”)
Nc1nn2cc(F)cnc2c1C(=O)Nc1cnccc1N1CCN2CCC1CC2 [I-N-18, N-(4-(1,4-diazabicyclo[3.2.2]nonan-4-yl)pyridin-3-yl)-2-amino-6-fluoropyrazolo[1,5-a]pyrimidine-3-carboxamide] | ++ (Compounds with a Cisplatin sensitization value >0.02 μM but <0.2 μM are marked with “++.”)
Nc1nn2cc(F)cnc2c1C(=O)Nc1cnccc1N1CCN(CC(F)(F)F)CC1 [I-N-20, 2-amino-6-fluoro-N-(4-(4-(2,2,2-trifluoroethyl)piperazin-1-yl)pyridin-3-yl)pyrazolo[1,5-a]pyrimidine-3-carboxamide] | +++ (Compounds with a Cisplatin sensitization value of <0.02 μM are marked with “+++.”)
Nc1nn2cc(F)cnc2c1C(=O)Nc1cnccc1N1CCN2CCC[C@H]2C1 [I-N-21, (S)-2-amino-6-fluoro-N-(4-(hexahydropyrrolo[1,2-a]pyrazin-2(1H)-yl)pyridin-3-yl)pyrazolo[1,5-a]pyrimidine-3-carboxamide] | +++ (Compounds with a Cisplatin sensitization value of <0.02 μM are marked with “+++.”)
C[C@H]1CN(C2COC2)CCN1c1ccncc1NC(=O)c1c(N)nn2cc(F)cnc12 [I-N-24, (S)-2-amino-6-fluoro-N-(4-(2-methyl-4-(oxetan-3-yl)piperazin-1-yl)pyridin-3-yl)pyrazolo[1,5-a]pyrimidine-3-carboxamide] | +++ (Compounds with a Cisplatin sensitization value of <0.02 μM are marked with “+++.”)
Nc1nn2cc(F)cnc2c1C(=O)Nc1cnccc1-n1cccn1 [I-N-26, N-(4-(1H-pyrazol-1-yl)pyridin-3-yl)-2-amino-6-fluoropyrazolo[1,5-a]pyrimidine-3-carboxamide] | + (Compounds with a Cisplatin sensitization value >0.2 μM but <5 μM are marked with “+.”)
Nc1nn2cc(F)cnc2c1C(=O)Nc1cnccc1-n1cnc(C(F)(F)F)c1 [I-N-27, 2-amino-6-fluoro-N-(4-(4-(trifluoromethyl)-1H-imidazol-1-yl)pyridin-3-yl)pyrazolo[1,5-a]pyrimidine-3-carboxamide] | ++ (Compounds with a Cisplatin sensitization value >0.02 μM but <0.2 μM are marked with “++.”)
Cc1nccn1-c1ccncc1NC(=O)c1c(N)nn2cc(F)cnc12 [I-N-28, 2-amino-6-fluoro-N-(4-(2-methyl-1H-imidazol-1-yl)pyridin-3-yl)pyrazolo[1,5-a]pyrimidine-3-carboxamide] | +++ (Compounds with a Cisplatin sensitization value of <0.02 μM are marked with “+++.”)
Nc1nn2cc(Cl)cnc2c1C(=O)Nc1cnccc1-n1ccnc1 [I-N-29, N-(4-(1H-imidazol-1-yl)pyridin-3-yl)-2-amino-6-chloropyrazolo[1,5-a]pyrimidine-3-carboxamide] | ++ (Compounds with a Cisplatin sensitization value >0.02 μM but <0.2 μM are marked with “++.”)
Cc1nc(C(F)(F)F)cn1-c1ccncc1NC(=O)c1c(N)nn2cc(F)cnc12 [I-N-30, 2-amino-6-fluoro-N-(4-(2-methyl-4-(trifluoromethyl)-1H-imidazol-1-yl)pyridin-3-yl)pyrazolo[1,5-a]pyrimidine-3-carboxamide] | ++ (Compounds with a Cisplatin sensitization value >0.02 μM but <0.2 μM are marked with “++.”)
Nc1nn2cc(F)cnc2c1C(=O)Nc1cncc(C2CC2)c1N1CCN(C2COC2)CC1 [I-N-32, 2-amino-N-(5-cyclopropyl-4-(4-(oxetan-3-yl)piperazin-1-yl)pyridin-3-yl)-6-fluoropyrazolo[1,5-a]pyrimidine-3-carboxamide] | ++ (Compounds with a Cisplatin sensitization value >0.02 μM but <0.2 μM are marked with “++.”)
Nc1nn2cc(F)cnc2c1C(=O)Nc1cnccc1N1CCN(C2CC2)CC1 [I-N-33, 2-amino-N-(4-(4-cyclopropylpiperazin-1-yl)pyridin-3-yl)-6-fluoropyrazolo[1,5-a]pyrimidine-3-carboxamide] | + (Compounds with a Cisplatin sensitization value >0.2 μM but <5 μM are marked with “+.”)
CC(C)(C)N1CCN(c2ccncc2NC(=O)c2c(N)nn3cc(Cl)cnc23)CC1 [I-N-34, 2-amino-N-(4-(4-(tert-butyl)piperazin-1-yl)pyridin-3-yl)-6-chloropyrazolo[1,5-a]pyrimidine-3-carboxamide] | ++ (Compounds with a Cisplatin sensitization value >0.02 μM but <0.2 μM are marked with “++.”)
CN(C)[C@H]1CCN(c2ccncc2NC(=O)c2c(N)nn3cc(Cl)cnc23)C[C@@H]1O [I-N-35, 2-amino-6-chloro-N-(4-((3S,4S)-4-(dimethylamino)-3-hydroxypiperidin-1-yl)pyridin-3-yl)pyrazolo[1,5-a]pyrimidine-3-carboxamide] | + (Compounds with a Cisplatin sensitization value >0.2 μM but <5 μM are marked with “+.”)
CN(C)CC1(O)CCN(c2ccncc2NC(=O)c2c(N)nn3cc(Cl)cnc23)CC1 [I-N-36, 2-amino-6-chloro-N-(4-(4-((dimethylamino)methyl)-4-hydroxypiperidin-1-yl)pyridin-3-yl)pyrazolo[1,5-a]pyrimidine-3-carboxamide] | ++ (Compounds with a Cisplatin sensitization value >0.02 μM but <0.2 μM are marked with “++.”)
CN(C)C1CCN(c2ccncc2NC(=O)c2c(N)nn3cc(Cl)cnc23)CC1 [I-N-37, 2-amino-6-chloro-N-(4-(4-(dimethylamino)piperidin-1-yl)pyridin-3-yl)pyrazolo[1,5-a]pyrimidine-3-carboxamide] | ++ (Compounds with a Cisplatin sensitization value >0.02 μM but <0.2 μM are marked with “++.”)
Nc1nn2cc(F)cnc2c1C(=O)Nc1cncc(Cl)c1N1CCN2CCN(C3COC3)CC2C1 (stereo not drawn) [I-N-38, 2-amino-N-(5-chloro-4-(8-(oxetan-3-yl)hexahydro-1H-pyrazino[1,2-a]pyrazin-2(6H)-yl)pyridin-3-yl)-6-fluoropyrazolo[1,5-a]pyrimidine-3-carboxamide] | ++ (Compounds with a Cisplatin sensitization value >0.02 μM but <0.2 μM are marked with “++.”)
CC(C)N1CCN(c2ccncc2NC(=O)c2c(N)nn3cc(Cl)cnc23)CC1 [I-N-39, 2-amino-6-chloro-N-(4-(4-isopropylpiperazin-1-yl)pyridin-3-yl)pyrazolo[1,5-a]pyrimidine-3-carboxamide] | ++ (Compounds with a Cisplatin sensitization value >0.02 μM but <0.2 μM are marked with “++.”)
CN(C)C1CCCN(c2ccncc2NC(=O)c2c(N)nn3cc(Cl)cnc23)C1 (stereo not drawn) [I-N-40, 2-amino-6-chloro-N-(4-(3-(dimethylamino)piperidin-1-yl)pyridin-3-yl)pyrazolo[1,5-a]pyrimidine-3-carboxamide] | ++ (Compounds with a Cisplatin sensitization value >0.02 μM but <0.2 μM are marked with “++.”)
CN1CCN(c2c(Cl)cncc2NC(=O)c2c(N)nn3cc(Cl)cnc23)CC1 [I-N-41, 2-amino-6-chloro-N-(5-chloro-4-(4-methylpiperazin-1-yl)pyridin-3-yl)pyrazolo[1,5-a]pyrimidine-3-carboxamide] | +++ (Compounds with a Cisplatin sensitization value of <0.02 μM are marked with “+++.”)
CN1CCCN(c2ccncc2NC(=O)c2c(N)nn3cc(Cl)cnc23)CC1 [I-N-43, 2-amino-6-chloro-N-(4-(4-methyl-1,4-diazepan-1-yl)pyridin-3-yl)pyrazolo[1,5-a]pyrimidine-3-carboxamide] | ++ (Compounds with a Cisplatin sensitization value >0.02 μM but <0.2 μM are marked with “++.”)
